# From ChEMBL document CHEMBL4219192, “Structural analysis and antioxidant activity of the glycoside from Imperial Chrysanthemum” (Bioorg Med Chem Lett, 2018)
# Active and inactive are the calls of the source. The rule behind the calls is not given here.
# Key:
# Type in all cases: functional
# [1] = Antioxidant activity assessed as hydroxyl radical scavenging activity preincubated for 20 mins followed by salicylic acid addition measured after 60 mins by fenton reaction method relative to control
# [2] = Antioxidant activity assessed as ABTS radical scavenging activity at 2.5 mg/ml after 6 mins relative to control
# [3] = Antioxidant activity assessed as inhibition of superoxide radical generation at 2.5 mg/ml after 4 mins by pyrogallol autoxidation method relative to control
# [4] = Antioxidant activity assessed as hydroxyl radical scavenging activity at 2.5 mg/ml preincubated for 20 mins followed by salicylic acid addition measured after 60 mins by fenton reaction method relative to control
# [5] = Antioxidant activity assessed as inhibition of superoxide radical generation after 4 mins by pyrogallol autoxidation method
# [6] = Antioxidant activity assessed as DPPH radical scavenging activity at 2.5 mg/ml after 30 mins by absorbance method relative to control
# [7] = Antioxidant activity assessed as DPPH radical scavenging activity up to 0.6 mg/ml after 30 mins by absorbance method relative to control
# [8] = Antioxidant activity assessed as inhibition of superoxide radical generation up to 0.6 mg/ml after 4 mins by pyrogallol autoxidation method relative to control
SMILES,Activity [1],Activity [2] [%],inhibition [3] [%],Activity [4] [%],inhibition [5],Activity [6] [%],Activity [7],inhibition [8]
OCOC1COC(S)(O[C@@H]2O[C@H](CO)[C@@H](O)[C@H](O)[C@H]2O)C1OCO (stereo not given in full),Dose-dependent effect,83.3,73.9,76.2,Dose-dependent effect,83.9,,
O=C1O[C@H]([C@@H](O)CO)C(O)=C1O,,96.8,,94.9,,,Active,Active
